Assay results: US6960653B2, “Method and kit for detecting, or determining the quantity of, beta-lactam penicillins” (Randox Laboratories Limited, priority 2001, dated 2005)
Converted amounts (≈) assume the structure as drawn.

System: IgG fraction of anti-ampicillin antiserum (antibodies raised against the hapten-BSA immunogen of Example 2)
Conditions: for % CR, Assay 1 / % CR, Assay 2 / % CR, Assay 3: % CR = IC50amp/IC50pen x 100; for IC50, Assay 1 / IC50, Assay 2 / IC50, Assay 3: concentration causing 50% displacement of signal, standards in TBST, ampicillin-HRP conjugate; for IC50, Mean Results / % CR, Mean Results: mean of Assays 1-3; for % CR, Mean Results: relative to 100% for ampicillin
Experimental: An aqueous solution of the immunogen of Example 2 was formulated with Freund's Complete Adjuvant (FCA) to form an emulsion consisting of 2 mg/ml immunogen in 50% (v/v) FCA. Three sheep were immunised with this emulsion, 0.25 ml being subcutaneously injected at each of 4 sites in the flank of each animal. Subsequent immunisations (boosts) contained 1 mg/ml immunogen emulsified in 50% (v/v) Freund's Incomplete Adjuvant (FIA) and were administered in the same manner at monthly intervals for 1 year. Blood sampling took place 7 to 14 days after each boost. Each sample was processed to produce antiserum which was further purified by caprylic acid and ammonium sulfate precipitation to yield an immunoglobulin G (IgG) fraction. The IgG fraction was evaluated by competitive ELISA, microtiter plate assay, as described below.
Serial dilutions of the IgG fraction of each antiserum to be tested (prepared in accordance with Example 4) were prepared in 10 mM Tris, pH 8.5. The wells of an enhanced binding 96 well polystyrene microtiter plate were coated with these dilutions (as shown in FIG. 2) by incubation at 37° C. for 2 hours (125 μl/well). The plate was washed 4 times with Tris buffered saline (pH7.4) containing Tween (Trade Mark) 20 (TBST) and tapped dry. […] 50 μl of TBST was added to the remaining (control) wells. […] The plate was incubated at 37° C. for 2 hours. The excess unbound conjugate was removed by washing 6 times over a 10 minute period with TBST. 125 μl of tetramethylbenzidine (TMB) substrate solution was added to each well of the plate, which was then incubated for 15 to 20 minutes, in the dark, at room temperature. The reaction was terminated by addition of 125 μl 0.2M H2SO4 to each well. The absorbance was then measured at 450 nm using a microtiter plate reader.
Standard solutions of benzylpenicillin (penicillin G-PenG), amoxycillin (Amox), cloxacillin (Clox), dicloxacillin (Diclox) and oxacillin (Oxa) were prepared in TBST at 0, 1, 5, 10, 50, 100, 200 and 500 ng/ml.

| SMILES | % CR, Assay 1 [%] | IC50, Assay 1 [ng/mL] | % CR, Assay 2 [%] | IC50, Assay 2 [ng/mL] | % CR, Assay 3 [%] | IC50, Assay 3 [ng/mL] | IC50, Mean Results [ng/mL] | % CR, Mean Results [%] |
| --- | --- | --- | --- | --- | --- | --- | --- | --- |
| Cc1onc(-c2ccccc2)c1C(=O)N[C@@H]1C(=O)N2[C@@H]1SC(C)(C)[C@@H]2C(=O)O [Oxa, oxacillin] | 42.5 | 4.0 (≈ 9.96 nM) | 36 | 7.0 (≈ 17.4 nM) | 38 | 6.6 (≈ 16.4 nM) | 5.9 (≈ 14.7 nM) | 39 |
| Cc1onc(-c2c(Cl)cccc2Cl)c1C(=O)N[C@@H]1C(=O)N2[C@@H]1SC(C)(C)[C@@H]2C(=O)O [Dicloxa, dicloxacillin] | 45 | 3.8 (≈ 8.08 nM) | 42 | 6.0 (≈ 12.8 nM) | 51 | 4.9 (≈ 10.4 nM) | 4.9 (≈ 10.4 nM) | 46 |
| CC1(C)SC2C(NC(=O)C(N)c3ccc(O)cc3)C(=O)N2C1C(=O)O (stereo not drawn) [Amox, amoxycillin] | 94 | 1.8 (≈ 4.93 nM) | 83 | 3.0 (≈ 8.21 nM) | 83 | 3.0 (≈ 8.21 nM) | 2.6 (≈ 7.12 nM) | 87 |
| CC1(C)S[C@@H]2[C@H](NC(=O)Cc3ccccc3)C(=O)N2[C@H]1C(=O)O [PenG, benzylpenicillin] | 63 | 2.7 (≈ 8.07 nM) | 78 | 3.2 (≈ 9.57 nM) | 74 | 3.4 (≈ 10.2 nM) | 3.1 (≈ 9.27 nM) | 72 |
| CC1(C)S[C@@H]2[C@H](NC(=O)[C@H](N)c3ccccc3)C(=O)N2[C@H]1C(=O)O [Amp, ampicillin] | 100 | 1.7 (≈ 4.87 nM) | 100 | 2.5 (≈ 7.15 nM) | 100 | 2.5 (≈ 7.15 nM) | 2.2 (≈ 6.3 nM) | 100 |
| Cc1onc(-c2ccccc2Cl)c1C(=O)N[C@@H]1C(=O)N2[C@@H]1SC(C)(C)[C@@H]2C(=O)O [Cloxa, cloxacillin] | 50 | 3.4 (≈ 7.8 nM) | 43 | 5.8 (≈ 13.3 nM) | 43 | 5.8 (≈ 13.3 nM) | 5 (≈ 11.5 nM) | 45 |
